Reference: patent publication EP0586229A1, “3-Hydroxy-3-(subst-akyl)-pyrrolidines as 5-lipoxygenase inhibitors” (ZENECA LIMITED, priority 1992, dated 1994)

Legend:
[1] = target: T1, 5-LO (Homo sapiens, UniProt P09917); assay: Test a): in vitro heparinised human blood challenged with calcium ionophore A23187, radioimmunoassay of LTB₄; type: cell-based; details: A23187 challenge, read-out: IC₅₀ against LTB₄ in test (a)
T1 construct: incubating a test compound with heparinised human blood, prior to challenge with the calcium ionophore A23187; endogenous in cells; host or cells: heparinised human whole blood (blood cells)
T1 sequence (P09917 1-674): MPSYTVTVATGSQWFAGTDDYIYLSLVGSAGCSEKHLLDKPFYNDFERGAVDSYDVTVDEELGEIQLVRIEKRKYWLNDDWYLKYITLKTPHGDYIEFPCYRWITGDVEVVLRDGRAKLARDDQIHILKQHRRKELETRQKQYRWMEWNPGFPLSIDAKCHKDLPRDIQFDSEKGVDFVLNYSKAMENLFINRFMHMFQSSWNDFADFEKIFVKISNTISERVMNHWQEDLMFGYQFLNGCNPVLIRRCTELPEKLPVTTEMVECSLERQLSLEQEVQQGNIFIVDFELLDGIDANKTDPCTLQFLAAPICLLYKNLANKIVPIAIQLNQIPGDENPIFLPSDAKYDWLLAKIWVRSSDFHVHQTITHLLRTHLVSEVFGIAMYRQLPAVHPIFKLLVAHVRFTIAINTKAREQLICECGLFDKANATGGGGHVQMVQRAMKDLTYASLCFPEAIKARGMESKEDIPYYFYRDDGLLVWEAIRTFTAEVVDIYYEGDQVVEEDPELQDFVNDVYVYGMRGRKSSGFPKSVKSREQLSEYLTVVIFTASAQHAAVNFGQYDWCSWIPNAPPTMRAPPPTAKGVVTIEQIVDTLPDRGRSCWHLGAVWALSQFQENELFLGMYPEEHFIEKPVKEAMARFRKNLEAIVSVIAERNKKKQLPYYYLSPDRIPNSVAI
Text: As stated previously, the compounds of the formula I are inhibitors of the enzyme 5-LO. […] J. Pharmacol. 1985, 84, 34P) which involve the use of a protein-LTB₄ conjugate produced using the procedure of Young et alia (Prostaglandins, 1983, 26(4), 605-613). The effects of a test compound on the enzyme cyclooxygenase (which is involved in the alternative metabolic pathway for arachidonic acid and gives rise to prostaglandins, thromboxanes and related metabolites) may be measured at the same time using the specific radioimmunoassay for thromboxane B₂(TxB₂) described by Carey and Forder (see above). This test provides an indication of the effects of a test compound against 5-LO and also cyclooxygenase in the presence of blood cells and proteins. It permits the selectivity of the inhibitory effect on 5-LO or cyclooxygenase to be assessed. • b) An ex vivo assay system, which is a variation of test a) above, involving administration to a group of rats of a test compound (usually orally as the suspension produced when a solution of the test compound in dimethylsulphoxide is added to carboxymethylcellulose), blood collection, heparinisation, challenge with A23187 and radioimmunoassay of LTB₄ and TxB₂. This test provides an indication of the bioavailability of a test compound as an inhibitor of 5-LO or cyclooxygenase. • c) An in vivo system involving measuring the effects of a test compound administered orally against the liberation of LTB₄ induced by zymosan within an air pouch generated within the subcutaneous tissue of the back of male rats. The rats are anaesthetised and air pouches are formed by the injection of sterile air (20ml). A further injection of air (10ml) is similarly given after 3 days. At 6 days after the initial air injection the test compound is administered (usually orally as the suspension produced when a solution of the test compound in dimethylsulphoxide is added to hydroxypropylmethylcellulose), followed by the intrapouch injection of zymosan (1ml of a 1% suspension in physiological saline). After 3 hours the rats are killed, the air pouches are lavaged with physiological saline, and the specific radioimmunoassay described above is used to assay LTB₄ in the washings. This test provides an indication of inhibitory effects against 5-LO in an inflammatory milieu.

[2] = test system: 5-LO; assay: Test c): in vivo zymosan-induced LTB₄ liberation in subcutaneous air pouch; details: oral, male rats, 3 hours
Text: As stated previously, the compounds of the formula I are inhibitors of the enzyme 5-LO. […] J. Pharmacol. 1985, 84, 34P) which involve the use of a protein-LTB₄ conjugate produced using the procedure of Young et alia (Prostaglandins, 1983, 26(4), 605-613). The effects of a test compound on the enzyme cyclooxygenase (which is involved in the alternative metabolic pathway for arachidonic acid and gives rise to prostaglandins, thromboxanes and related metabolites) may be measured at the same time using the specific radioimmunoassay for thromboxane B₂(TxB₂) described by Carey and Forder (see above). This test provides an indication of the effects of a test compound against 5-LO and also cyclooxygenase in the presence of blood cells and proteins. It permits the selectivity of the inhibitory effect on 5-LO or cyclooxygenase to be assessed. • b) An ex vivo assay system, which is a variation of test a) above, involving administration to a group of rats of a test compound (usually orally as the suspension produced when a solution of the test compound in dimethylsulphoxide is added to carboxymethylcellulose), blood collection, heparinisation, challenge with A23187 and radioimmunoassay of LTB₄ and TxB₂. […]

SMILES | IC50 [1] [nM] | ED₅₀ versus LTB₄ in test (c) [2]
COC1(c2cccc(OCc3ccc4ccccc4c3)c2)CCN(C)C1 (stereo not shown) [Example 1, 3-methoxy-1-methyl-3-[3-(naphth-2-ylmethoxy)phenyl]pyrrolidine] | 210 | –
C#CCN1CCC(OC)(c2cccc(OCc3ccc4ccccc4c3)c2)C1 (stereo not shown) [Example 4, 3-methoxy-3-[3-(naphth-2-ylmethoxy)phenyl]-1-(prop-2-ynyl)pyrrolidine] | 60 | –
CCn1c(=O)ccc2cc(COc3cccc(C4(OC)CCN(CC(F)(F)F)C4)c3)ccc21 (stereo not shown) [Example 5, 3-[3-(1-ethyl-2-oxo-1,2-dihydroquinolin-6-ylmethoxy)phenyl]-3-methoxy-1-(2,2,2-trifluoroethyl)pyrrolidine] | 90 | –
COC1(c2cc(F)cc(Sc3ccc4c(c3)CCC(=O)N4C)c2)CCN(CC(F)(F)F)C1 (stereo not shown) [Example 6, 3-[5-fluoro-3-(1-methyl-2-oxo-1,2,3,4-tetrahydroquinolin-6-ylthio)phenyl]-3-methoxy-1-(2,2,2-trifluoroethyl)pyrrolidine] | 30 | approximately 1.5 mg/kg
COC1(c2cc(F)cc(Sc3ccc(C(C)=NO)cc3)c2)CCN(CC(F)(F)F)C1 (stereo not shown) [Example 32, 3-{5-fluoro-3-[4-(1-hydroxyiminoethyl)phenylthio]phenyl}-3-methoxy-1-(2,2,2-trifluoroethyl)pyrrolidine] | 40 | approximately 0.5 mg/kg
